From patent publication US12612412B2, “Antiviral heterocyclic compounds” (Enanta Pharmaceuticals, Inc., priority 2021, dated 2026) come the findings set out here.

SMILES strings stand for the structures. Read-outs that look alike come from different tables or passages of the source.

The subject of assay [1] is HMPV clinical isolate TN/1501/A1. The assay can be described thus: HMPV antiviral assay Method-B (clinical isolate TN/1501/A1 in LLC-MK2 cells, ATP-Lite readout). It counts as cell-based, Human metapneumovirus (HMPV). To be noted: human metapneumovirus, LLC-MK2, 144 h, hMPV WT1501 (clinical isolate TN/1501/A1), 6 days. The essentials: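 EC50 derived by four-parameter logistic fit of percent cell health, measured by ATP-Lite luminescence and normalised to virus-only and uninfected-cell controls. Compounds run in duplicate from 10 μM top, 3-fold, 10 points. Infection: LLC-MK2 cells, MOI 0.014, 2 μg/mL final TPCK-trypsin, serum-free, 6 days at 37° C.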

Assay [2] concerns genotype A, "Long" strain RSV. The assay can be described thus: RSV-A assay (CPE protection in Hep-2 cells, ATPlite readout). Conditions: human respiratory syncytial virus, MOI 0.1, CPE protection. The class given is cell-based, Human respiratory syncytial virus (HRSV). The essentials:
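ATPlite luminescence (cellular ATP) served as the measure of cell health after 5 days of infection. Hep-2 cells at 8,000 per well received duplicate 2-fold compound dilutions plus virus at MOI 0.1, and EC50 was calculated from CPE protection.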
A general note: ATP-based viability assays read luminescence as a measure of living cells.

Setting [3] is: RSV-A Long strain, read-out: Human RSV-A (“Long”) EC50.
[4] abbreviates: genotype A “Long” strain RSV, read-out: Human RSV-A (“Long”).

For the compound `COc1cc(C(=O)NC[C@](O)(c2cc3c(c(-c4ccc5c(c4)CC5)n2)OC[C@]3(C)C(N)=O)C(F)(F)F)cc2cn(C3CC3)nc12` [Example 980], the EC50 in assay [1] was below 500 nM; in assay [2] (setting [3]), below 200 nM.

Regarding `COc1cc(C(=O)NC[C@](O)(c2cc3c(c(-c4c(F)cc(F)cc4F)n2)OC[C@]3(C)C(N)=O)C(F)(F)F)cc2cn(C3CC3)nc12` [Example 997], the EC50 in assay [1] is below 500 nM; in assay [2] (setting [3]) it was below 200 nM.

Turning to `[2H]C([2H])([2H])[C@](O)(CNC(=O)c1cc(OC)c2nn(C3CC3)cc2c1)c1cc2c(c(-c3ccc(F)cc3)n1)OC[C@]2(C)C(N)=O` [Example 645], the figures for the EC50 in assay [1] and in assay [2] (setting [4]) were above 500 nM and below 200 nM, respectively.

On to `COc1cc(C(=O)NC[C@](O)(c2cc3c(c(-c4cc(Cl)ccc4F)n2)OC[C@]3(C)C(N)=O)C(F)(F)F)cc2cn(C3CC3)nc12` [Example 990], for which the figures for the EC50 in assay [1] and in assay [2] (setting [3]) were below 500 nM and below 200 nM, respectively.

Turning to `COc1cc(C(=O)NC[C@](O)(c2cc3c(c(-c4cccc(Br)c4F)n2)OC[C@]3(C)C(N)=O)C2CC2)cc2cn(C(F)F)nc12` [Example 1098], the EC50 in assay [1] is below 500 nM; in assay [2] (setting [3]), below 200 nM.

`COc1cc(C(=O)NC[C@](O)(c2cc3c(c(-c4ccc(F)c(F)c4Cl)n2)OC[C@]3(C)C(N)=O)C(F)(F)F)cc2cn(C(F)F)nc12` [Example 776]: the EC50 in assay [1] was below 500 nM; in assay [2] (setting [4]), below 200 nM.

With `COc1cc(C(=O)NC[C@](O)(c2cc3c(c(-c4ccc(F)c(F)c4F)n2)OC[C@]3(C)C(N)=O)C2CC2)cc2cn(C3(F)CC3)nc12` [Example 537], the EC50 is below 500 nM in assay [1] and below 200 nM in assay [2] (setting [4]).

On to `C[C@]1(C(N)=O)COc2c1cc([C@@](O)(CNC(=O)c1ccn3nc(C4CC4)cc3c1)C1CC1)nc2-c1ccc2c(c1)OC(F)(F)O2` [Example 824], for which the EC50 in assay [1] was below 500 nM; in assay [2] (setting [4]), below 200 nM.

For the compound `COc1cc(C(=O)NC[C@](O)(c2cc3c(c(-c4cccc(F)c4Cl)n2)OC[C@]3(C)C(N)=O)C2CC2)cc2cc(Br)c(C)nc12` [Example 1126], the EC50 in assay [1] was below 500 nM; in assay [2] (setting [3]), below 200 nM.

Regarding `COc1cc(C(=O)NC[C@](O)(c2cc3c(c(-c4cc(F)c(F)cc4Cl)n2)OC[C@]3(C)C(N)=O)C2CC2)cc2cc(Br)cnc12` [Example 660], the figures for the EC50 in assay [1] and in assay [2] (setting [4]) were below 500 nM and below 200 nM, respectively.

`C[C@]1(C(N)=O)COc2c1cc([C@@](O)(CNC(=O)c1cc(OC3CC3)c3nn(C(F)F)cc3c1)C1CC1)nc2-c1ccc2c(c1)OC(F)(F)O2` [Example 847]: the figures for the EC50 in assay [1] and in assay [2] (setting [3]) were below 500 nM and below 200 nM, respectively.

With `COc1cc(C(=O)NCC(O)(c2cc3c(c(-c4cc(F)c(F)c(Cl)c4)n2)OC[C@]3(C)C(N)=O)C(F)(F)F)cc2cn(C3CC3)nc12` (stereo partly drawn) [Example 931], the EC50 in assay [1] is below 500 nM; in assay [2] (setting [3]), below 200 nM.

As for `COc1cc(C(=O)NC[C@](O)(c2cc3c(c(-c4ccc5c(c4)OC(F)(F)O5)n2)OC[C@@]3(C(N)=O)C(F)F)C2CC2)cc2cc(Cl)c(C)nc12` [Example 1015], the EC50 in assay [1] was below 500 nM; in assay [2] (setting [3]), below 200 nM.

Turning to `COc1cc(C(=O)NC[C@](O)(c2cc3c(c(-c4ccc(F)c(F)c4F)n2)OC[C@]3(C)C(N)=O)C2CC2)cc2cn(C(F)F)nc12` [Example 528], the EC50 in assay [1] is below 500 nM; in assay [2] (setting [4]), below 200 nM.

Take `COc1cc(C(=O)NC[C@](O)(c2cc3c(c(-c4ccc(F)cc4Cl)n2)OC[C@]3(C)C(N)=O)C2(F)CC2)cc2cc(Cl)c(C)nc12` [Example 734]: the EC50 is below 500 nM in assay [1] and below 200 nM in assay [2] (setting [4]).

Regarding `COc1cc(C(=O)NC[C@](O)(c2cc3c(c(-c4ccc(F)cc4)n2)OC[C@]3(C)C(N)=O)C(F)(F)F)cc2c(=O)n(C3CC3)[nH]c12` [Example 876], the EC50 is above 500 nM in assay [1] and above 200 nM in assay [2] (setting [3]).

As for `Cc1cnc2c(OC(F)F)cc(C(=O)NC[C@](O)(c3cc4c(c(-c5ccc6c(c5)OC(F)(F)O6)n3)OC[C@@]4(C(N)=O)C(F)F)C(F)(F)F)cc2c1` [Example 1043], the figures for the EC50 in assay [1] and in assay [2] (setting [3]) were below 500 nM and below 200 nM, respectively.

On to `COc1cc(C(=O)NC[C@](O)(c2cc3c(c(-c4cnc(Cl)c(Cl)c4)n2)OC[C@]3(C)C(N)=O)C(F)(F)F)cc2cc(Cl)c(C)nc12` [Example 588], for which the EC50 in assay [1] was above 500 nM; in assay [2] (setting [4]) it was below 200 nM.

Take `COc1cc(C(=O)NC[C@](O)(c2cc3c(c(-c4ccc5c(c4)OC(F)(F)O5)n2)OC[C@]3(C)C(N)=O)C(F)(F)F)cc2cn(C(F)F)nc12` [Example 591]: the EC50 in assay [1] is below 500 nM; in assay [2] (setting [4]), below 200 nM.

In the case of `COc1cc(C(=O)NC[C@](O)(c2cc3c(c(-c4ccc(F)cc4)n2)OC[C@]3(C)C(N)=O)C(F)(F)F)cc2nn(C3CC3)cc12` [Example 874], the EC50 in assay [1] was above 500 nM; in assay [2] (setting [3]) it was above 200 nM.

`COc1ccc(-c2nc([C@@](O)(CNC(=O)c3cc(OC)c4nn(C5CC5)cc4c3)C(F)(F)F)cc3c2OC[C@]3(C)C(N)=O)cc1` [Example 924]: the EC50 in assay [1] was above 500 nM; in assay [2] (setting [3]), below 200 nM.

Consider `Cc1cnc2c(OC(F)F)cc(C(=O)NC[C@](O)(c3cc4c(c(-c5ccc6c(c5)OC(F)(F)O6)n3)OC[C@]4(C)C(N)=O)C3CC3)cc2c1` [Example 538], for which the results for the EC50 in assay [1] and in assay [2] (setting [4]) were below 500 nM and below 200 nM, respectively.

Take `COc1cc(C(=O)NC[C@](O)(c2cc3c(c(-c4ccc(F)cc4)n2)OC[C@]3(C)C(N)=O)C2CC2)cc2cc(Cl)c(Cl)nc12` [Example 1105]: the results for the EC50 in assay [1] and in assay [2] (setting [3]) were above 500 nM and below 200 nM, respectively.

In the case of `COc1cc(C(=O)NC[C@](O)(c2cc3c(c(-c4c(F)cc(F)cc4Cl)n2)OC[C@]3(C)C(N)=O)C(F)(F)F)cc2cn(C3CC3)nc12` [Example 1235], the EC50 in assay [1] was below 500 nM; in assay [2] (setting [3]), below 200 nM.

As to `COc1cc(C(=O)NC[C@](O)(c2cc3c(c(-c4ccc(F)c(Cl)c4)n2)OC[C@@]3(C(N)=O)C(F)F)C(F)(F)F)cc2cc(Cl)c(C)nc12` [Example 1005], the EC50 in assay [1] was below 500 nM; in assay [2] (setting [3]), below 200 nM.

Take `COc1cc(C(=O)NCC(O)(c2cc3c(c(-c4ccc(OC(F)(F)F)c(F)c4)n2)OC[C@]3(C)C(N)=O)C(F)(F)F)cc2cn(C3CC3)nc12` (stereo partly drawn) [Example 927]: the EC50 in assay [1] was above 500 nM; in assay [2] (setting [3]), below 200 nM.

Turning to `COc1cc(C(=O)NC[C@](O)(c2cc3c(c(-c4c(F)cc(Cl)cc4F)n2)OC[C@]3(C)C(N)=O)C2CC2)cc2cc(Cl)c(C)nc12` [Example 1159], the EC50 is below 500 nM in assay [1] and below 200 nM in assay [2] (setting [3]).

Consider `Cc1cnc2c(OC(F)(F)F)cc(C(=O)NC[C@](O)(c3cc4c(c(-c5ccc(F)cc5Cl)n3)OC[C@]4(C)C(N)=O)C(F)(F)F)cc2c1` [Example 519], for which the values for the EC50 in assay [1] and in assay [2] (setting [4]) were above 500 nM and below 200 nM, respectively.

On to `COc1cc(C(=O)NC[C@](O)(c2cc3c(c(-c4cc(Cl)ccc4F)n2)OC[C@]3(C)C(N)=O)C2CC2)cc2cn(C3(F)CC3)nc12` [Example 839], for which the EC50 in assay [1] is below 500 nM; in assay [2] (setting [3]), below 200 nM.

Turning to `COc1cc(C(=O)NC[C@](O)(c2cc3c(c(-c4ccc(F)c(Cl)c4F)n2)OC[C@]3(C)C(N)=O)C2CC2)cc2cc(Br)c(Cl)nc12` [Example 1185], the EC50 is below 500 nM in assay [1] and below 200 nM in assay [2] (setting [3]).

Regarding `C[C@]1(C(N)=O)COc2c1cc([C@@](O)(CNC(=O)c1cc(F)c3nn(C4(F)CC4)cc3c1)C1CC1)nc2-c1ccc2c(c1)OC(F)(F)O2` [Example 848], the EC50 in assay [1] was below 500 nM; in assay [2] (setting [3]), below 200 nM.

Turning to `COc1cc(C(=O)NC[C@](O)(c2cc3c(c(-c4ccc5c(c4)OC(F)(F)O5)n2)OC[C@@]3(C(N)=O)C(F)F)C2CC2)cc2cc(C3CC3)nn12` [Example 1013], the EC50 in assay [1] is below 500 nM; in assay [2] (setting [3]), below 200 nM.

Regarding `COc1cc(C(=O)NC[C@](O)(c2cc3c(c(-c4ccc(F)cc4)n2)OC[C@@]3(CF)C(N)=O)C2CC2)cc2cc(C3CC3)nn12` [Example 1059], the EC50 is above 500 nM in assay [1] and above 200 nM in assay [2] (setting [3]).

Regarding `COc1cc(C(=O)NC[C@](O)(c2cc3c(c(-c4ccc(C5(C#N)CC5)cc4)n2)OC[C@]3(C)C(N)=O)C(F)(F)F)cc2cn(C3CC3)nc12` [Example 981], the EC50 in assay [1] is above 500 nM; in assay [2] (setting [3]) it was above 200 nM.

Regarding `Cc1nc2c(OC3CC3)cc(C(=O)NC[C@](O)(c3cc4c(c(-c5ccc(F)cc5)n3)OC[C@]4(C)C(N)=O)C3(F)CC3)cc2cc1Cl` [Example 739], the EC50 in assay [1] was below 500 nM; in assay [2] (setting [4]) it was below 200 nM.

Consider `Cc1cnc2c(Cl)cc(C(=O)NC[C@](O)(c3cc4c(c(-c5ccc6c(c5)OC(F)(F)O6)n3)OC[C@]4(C)C(N)=O)C3CC3)cc2c1` [Example 539], for which the EC50 was below 500 nM in assay [1] and below 200 nM in assay [2] (setting [4]).

As to `COc1cc(C(=O)NC[C@](O)(c2cc3c(c(-c4cccc(-c5ccccc5)c4)n2)OC[C@]3(C)C(N)=O)C(F)(F)F)cc2cn(C3CC3)nc12` [Example 1251], the figures for the EC50 in assay [1] and in assay [2] (setting [3]) were above 500 nM and above 200 nM, respectively.

Turning to `COc1cc(C(=O)NC[C@](O)(c2cc3c(c(-c4ccc(C(F)(F)F)cc4)n2)OC[C@]3(C)C(N)=O)C2CC2)cc2cn(C3CC3)nc12` [Example 793], the EC50 in assay [1] was below 500 nM; in assay [2] (setting [4]) it was below 200 nM.

As to `COc1ccc(C(=O)NC[C@](O)(c2cc3c(c(-c4ccc5c(c4)OC(F)(F)O5)n2)OC[C@]3(C)C(N)=O)C(F)(F)F)n2ccnc12` [Example 700], the figures for the EC50 in assay [1] and in assay [2] (setting [4]) were above 500 nM and below 200 nM, respectively.
